From patent EP0776155B1, “DELIVERY OF EXOGENOUS CHEMICAL SUBSTANCES TO PLANT TISSUES” (MONSANTO COMPANY, priority 1994, dated 1996)

Tests used:
Assay type in all cases: in vivo
[1] = test system: common lambsquarter (Chenopodium album, CHEAL); assay: Example 46: percent control, various propelled particulate abrasives, glyphosate spray; details: glyphosate 0.11 kg a.e./ha, 200-mesh
Procedure: In this Example illustrative of the invention, common lambsquarter (Chenopodium album, CHEAL) seeds were planted in 4-inch (10.1-cm) square pots filled with a soil mix consisting of 50% Metromix 350 plus 50% silt loam to which 100 g/cu ft (3.57 kg/m^3) Osmocote fertilizer were added, and the seeds were covered with the same soil mix without added fertilizer. […] The same settings were maintained before and after treatment.
Physical injury in this Example was inflicted on the above-ground portions of the plants, approximately 2 weeks after planting, by various propelled particulate abrasives. This was applied using the same sandblaster as used in Example 47. For this Example, air pressure was maintained at 40 lb/sq inch (276 kiloPascals), the nozzle was set 16 inches (41 cm) above the plant canopy, track speed was under 1 mile/hour (1.6 km/hr) and one pass was made with the sandblaster. […] Some plants received no abrasion.
Materials used as abrasive agents in this study were: • garnet, 200-mesh as used in Example 47 • glass cullet, 1040 supplied by Universal • glass cullet, 1035 supplied by Universal • aluminum oxide type B, 120-mesh • white silica sand, 1.0 profile size, supplied by Unimin • glass beads, 140-270 mesh • Scott's Lawn & Garden fertilizer granules ground to a fine powder using a Retsch 2M-1 mill
Plants were then assigned to different herbicide treatments in a factorial experimental design with 2 replications. All plants for each herbicide treatment were sprayed at the same time using a track sprayer calibrated to deliver 20 gallons/acre (187 liters/hectare) water with an 8002E nozzle having a 50-mesh screen, 16 inches (41 cm) above the plant canopy. In these Examples the herbicide used was glyphosate as its isopropylamine salt, in the form of the aqueous concentrate formulation MON 2139 of Monsanto Company. Spray solutions were made from stock solutions prepared by dilution of MON 2139 in water.
After an interval of 12 days, a visual evaluation was performed to estimate herbicidal efficacy as percent control of treated plants compared to untreated check plants.

[2] = test system: velvetleaf (Abutilon theophrasti, ABUTH); assay: Example 49: percent control, dry ice (solid carbon dioxide) injury then glyphosate spray
Procedure: In this Example illustrative of the invention, velvetleaf (Abutilon theophrasti, ABUTH) seeds were planted in 4-inch (10.1-cm) square pots filled with 100% silt loam to which 35 g/cu ft (1.25 kg/m^3) IBDU fertilzer were added, and the seeds were covered with 50% Rediearth plus 50% silt loam without fertilizer. […] The same settings were maintained before and after treatment.
Physical injury in this Example was inflicted on the above-ground portions of the plants, two weeks after planting, by means of 15-30 particles of dry ice (carbon dioxide in its solid phase) propelled on to each plant using a 1 oz (28.3 ml) French square bottle having two 3 mm holes in the lid, with vigorous shaking of the bottle 8-12 inches (20-30 cm) above the plant canopy.
After dry ice treatment, plants were sprayed with glyphosate as its isopropylamine salt, in the form of the aqueous concentrate formulation MON 2139 of Monsanto Company. Plants with and without the dry ice treatment were sprayed at the same time using a track sprayer calibrated to deliver 20 gallons/acre (187 liters/ha) water with an 8002E nozzle having a 50-mesh screen, 16 inches (41 cm) above the plant canopy. Each treatment was replicated three times. Similar glyphosate treatments were applied to plants which had not received dry ice. Plants were returned to the greenhouse after spraying. […]

[3] = test system: white flatweed (Hypochoeris microcephala, HRYMI); assay: Example 51: field experiment, percent control, bruising or blasting then glyphosate spray; details: 14 days after glyphosate application
Procedure: In this Example illustrative of the invention, a field experiment was conducted in the Australian Capital Territory on 5-10 cm high vegetation consisting primarily of white flatweed (Hypochoeris microcephala, HRYMI) at the rosette stage of growth and silvergrass (Vulpia sp., VLPSS) at the 1-3 tiller stage. Plots were established, 2 m wide and 10 m long, with 3 replications of each treatment.
Plots received either no physical injury, or one of two injury treatments, a prior art method described herein as "bruising" and a method of the present invention described herein as "blasting". Bruising involved driving a 2 metric ton four-wheel drive vehicle fitted with rubber tires, twice over the plot in opposite directions. For blasting, a hand-held sandblaster was used having a container of capacity 1000 cm^3 slung under the gun body. The sandblaster was made of die-cast aluminum alloy and equipped with a 6 mm nozzle. The operating pressure was 95 lb/sq inch (655 kPa). The abrasive used was a commercial product consisting of fine glass particles.
Within an hour after bruising or blasting, plots received an application of glyphosate as its isopropylamine salt in the form of the aqueous concentrate formulation sold in Australia as Roundup® herbicide, diluted appropriately in water. Application was made using a hand-held boom sprayer fitted with 11001 nozzles, operating at 250 kPa pressure and delivering 90 liters/ha spray volume.
After an interval of 14 days, a visual evaluation was performed to estimate herbicidal efficacy as percent control of plants in treated plots compared to untreated check plots.

SMILES: O=C(O)CNCP(=O)(O)O [glyphosate, N-phosphonomethylglycine]
- percent control of CHEAL 12 days after glyphosate application ([1]; aluminum oxide, abrasive rate* (kg/ha) 143, calculated based on garnet): 46%
- percent control of CHEAL 12 days after glyphosate application ([1]; aluminum oxide, abrasive rate* (kg/ha) 256, calculated based on garnet): 50%
- percent control of CHEAL 12 days after glyphosate application ([1]; fertilizer, abrasive rate* (kg/ha) 143, calculated based on garnet): 25%
- percent control of CHEAL 12 days after glyphosate application ([1]; fertilizer, abrasive rate* (kg/ha) 256, calculated based on garnet): 34%
- percent control of CHEAL 12 days after glyphosate application ([1]; garnet, abrasive rate* (kg/ha) 143): 52%
- percent control of CHEAL 12 days after glyphosate application ([1]; garnet, abrasive rate* (kg/ha) 256): 37%
- percent control of CHEAL 12 days after glyphosate application ([1]; glass beads, abrasive rate* (kg/ha) 143, calculated based on garnet): 62%
- percent control of CHEAL 12 days after glyphosate application ([1]; glass beads, abrasive rate* (kg/ha) 256, calculated based on garnet): 43%
- percent control of CHEAL 12 days after glyphosate application ([1]; glass cullet, 1035, abrasive rate* (kg/ha) 143, calculated based on garnet): 28%
- percent control of CHEAL 12 days after glyphosate application ([1]; glass cullet, 1035, abrasive rate* (kg/ha) 256, calculated based on garnet): 48%
- percent control of CHEAL 12 days after glyphosate application ([1]; glass cullet, 1040, abrasive rate* (kg/ha) 143, calculated based on garnet): 38%
- percent control of CHEAL 12 days after glyphosate application ([1]; glass cullet, 1040, abrasive rate* (kg/ha) 256, calculated based on garnet): 20%
- percent control of CHEAL 12 days after glyphosate application ([1]; white silica sand, abrasive rate* (kg/ha) 143, calculated based on garnet): 38%
- percent control of CHEAL 12 days after glyphosate application ([1]; white silica sand, abrasive rate* (kg/ha) 256, calculated based on garnet): 50%
- percent control of ABUTH ([2]; glyphosate rate 0.014 kg a.i./ha, not treated with dry ice, 5 DAT): 0%
- percent control of ABUTH ([2]; glyphosate rate 0.014 kg a.i./ha, not treated with dry ice, 11 DAT): 0%
- percent control of ABUTH ([2]; glyphosate rate 0.014 kg a.i./ha, treated with dry ice, 5 DAT): 0%
- percent control of ABUTH ([2]; glyphosate rate 0.014 kg a.i./ha, treated with dry ice, 11 DAT): 0%
- percent control of ABUTH ([2]; glyphosate rate 0.028 kg a.i./ha, not treated with dry ice, 5 DAT): 0%
- percent control of ABUTH ([2]; glyphosate rate 0.028 kg a.i./ha, not treated with dry ice, 11 DAT): 0%
- percent control of ABUTH ([2]; glyphosate rate 0.028 kg a.i./ha, treated with dry ice, 5 DAT): 0%
- percent control of ABUTH ([2]; glyphosate rate 0.028 kg a.i./ha, treated with dry ice, 11 DAT): 0%
- percent control of ABUTH ([2]; glyphosate rate 0.056 kg a.i./ha, not treated with dry ice, 5 DAT): 0%
- percent control of ABUTH ([2]; glyphosate rate 0.056 kg a.i./ha, not treated with dry ice, 11 DAT): 0%
- percent control of ABUTH ([2]; glyphosate rate 0.056 kg a.i./ha, treated with dry ice, 5 DAT): 0%
- percent control of ABUTH ([2]; glyphosate rate 0.056 kg a.i./ha, treated with dry ice, 11 DAT): 2%
- percent control of ABUTH ([2]; glyphosate rate 0.11 kg a.i./ha, not treated with dry ice, 5 DAT): 8%
- percent control of ABUTH ([2]; glyphosate rate 0.11 kg a.i./ha, not treated with dry ice, 11 DAT): 0%
- percent control of ABUTH ([2]; glyphosate rate 0.11 kg a.i./ha, treated with dry ice, 5 DAT): 22%
- percent control of ABUTH ([2]; glyphosate rate 0.11 kg a.i./ha, treated with dry ice, 11 DAT): 8%
- percent control of ABUTH ([2]; glyphosate rate 0.21 kg a.i./ha, not treated with dry ice, 5 DAT): 60%
- percent control of ABUTH ([2]; glyphosate rate 0.21 kg a.i./ha, not treated with dry ice, 11 DAT): 73%
- percent control of ABUTH ([2]; glyphosate rate 0.21 kg a.i./ha, treated with dry ice, 5 DAT): 71%
- percent control of ABUTH ([2]; glyphosate rate 0.21 kg a.i./ha, treated with dry ice, 11 DAT): 83%
- percent control of ABUTH ([2]; glyphosate rate 0.45 kg a.i./ha, not treated with dry ice, 5 DAT): 80%
- percent control of ABUTH ([2]; glyphosate rate 0.45 kg a.i./ha, not treated with dry ice, 11 DAT): 100%
- percent control of ABUTH ([2]; glyphosate rate 0.45 kg a.i./ha, treated with dry ice, 5 DAT): 89%
- percent control of ABUTH ([2]; glyphosate rate 0.45 kg a.i./ha, treated with dry ice, 11 DAT): 100%
- percent control of ABUTH ([2]; glyphosate rate 0.89 kg a.i./ha, not treated with dry ice, 5 DAT): 97%
- percent control of ABUTH ([2]; glyphosate rate 0.89 kg a.i./ha, not treated with dry ice, 11 DAT): 100%
- percent control of ABUTH ([2]; glyphosate rate 0.89 kg a.i./ha, treated with dry ice, 5 DAT): 93%
- percent control of ABUTH ([2]; glyphosate rate 0.89 kg a.i./ha, treated with dry ice, 11 DAT): 100%
- percent control HRYMI ([3]; glyphosate rate 0.18 kg a.e./ha, injury treatment blasting): 77%
- percent control HRYMI ([3]; glyphosate rate 0.18 kg a.e./ha, injury treatment bruising): 77%
- percent control HRYMI ([3]; glyphosate rate 0.18 kg a.e./ha, injury treatment none): 62%
- percent control HRYMI ([3]; glyphosate rate 0.25 kg a.e./ha, injury treatment blasting): 100%
- percent control HRYMI ([3]; glyphosate rate 0.25 kg a.e./ha, injury treatment bruising): 80%
- percent control HRYMI ([3]; glyphosate rate 0.25 kg a.e./ha, injury treatment none): 78%
- percent control HRYMI ([3]; glyphosate rate 0.36 kg a.e./ha, injury treatment blasting): 100%
- percent control HRYMI ([3]; glyphosate rate 0.36 kg a.e./ha, injury treatment bruising): 93%
- percent control HRYMI ([3]; glyphosate rate 0.36 kg a.e./ha, injury treatment none): 92%
